The values below come from article PMC11359702, “Synthesis and Biochemical Evaluation of Ethanoanthracenes and Related Compounds: Antiproliferative and Pro-Apoptotic Effects in Chronic Lymphocytic Leukemia (CLL)” (Pharmaceuticals, 2024).

Read-outs that look alike come from different tables or passages of the source.

The subject of data set [1] is HG-3 and PGA-1 cell lines. Kind of data set: alamarBlue cell viability assay, mean of both CLL cell lines. The class given is cell-based, human. To be noted: mean of HG-3 and PGA-1. For orientation: Resazurin is reduced to fluorescent resorufin, in cell work by metabolically active cells.
For data set [2], the system named is PGA-1 cells. In words: alamarBlue cell viability assay. To be noted: read-out: PGA-1 IC50.
Data set [3] has as its system HG-3 cells. Kind of data set: alamarBlue cell viability assay. To be noted: read-out: HG-3 IC50, HG-3, 24 h.
Data set [4] deals with PGA-1 cells. To be noted: 10 µM.
In data set [5] the test system is HG-3 cells. To be noted: 10 µM.

In general, IC50 refers to the point on the concentration scale where inhibition reaches its midpoint. With `COc1ccc(C(=O)/C=C/C23c4ccccc4C(c4ccccc42)C2C(=O)NC(=O)C23)cc1` (stereo not shown) [Compound 23i, (E)-9-(3-(4-Methoxyphenyl)-3-oxoprop-1-en-1-yl)-9,10-dihydro-9,10-[3,4]epipyrroloanthracene-12,14-dione], the IC50 in data set [1] was 11.4 µM; in data set [2] (PGA-1, 24 h), 12.6 µM; in data set [3], 10.3 µM.

Turning to `COc1cc(C(=O)/C=C/C23c4ccccc4C(c4ccccc42)C2C(=O)NC(=O)C23)cc(OC)c1OC` (stereo not shown) [Compound 23k, (E)-9-(3-Oxo-3-(3,4,5-trimethoxyphenyl)prop-1-en-1-yl)-9,10-dihydro-9,10-[3,4] epipyrroloanthracene-12,14-dione], the IC50 was 5.19 µM in data set [1]; 5.38 µM in data set [2] (PGA-1, 24 h); 4.9 µM in data set [3].

The term cell viability denotes a read-out of living cells in per cent, often relative to untreated cells. Consider `O=C(C=CC12c3ccccc3C(c3ccccc31)C1C(=O)N(c3ccccc3)C(=O)C12)c1ccc([N+](=O)[O-])cc1` (stereo not shown) [Compound 24b, 9-(E)-3-(4-Nitrophenyl)-3-oxoprop-1-en-1-yl)-13-phenyl-9,10-dihydro-9,10-[3,4]epipyrroloanthracene-12,14-dione], for which the results for the cell viability in data set [4] and in data set [5] were 22% and 10%, respectively.

In the case of `O=C(C=CC12c3ccccc3C(c3ccccc31)C1C(=O)N(c3ccccc3)C(=O)C12)c1ccco1` (stereo not shown) [Compound 24o, 9-(E)-3-(Furan-2-yl)-3-oxoprop-1-en-1-yl)-13-phenyl-9,10-dihydro-9,10-[3,4]epipyrroloanthracene-12,14-dione], the cell viability in data set [4] was 9%; in data set [5], 3%.

The molecule `O=C(C=CC12c3ccccc3C(c3ccccc31)C1C(=O)N(c3ccc(Cl)cc3)C(=O)C12)c1ccc(Br)cc1` (stereo not shown) [Compound 25a, (E)-9-(3-(4-Bromophenyl)-3-oxoprop-1-en-1-yl)-13-(4-chlorophenyl)-9,10-dihydro-9,10-[3,4]epipyrroloanthracene-12,14-dione] came in with a cell viability in data set [4] of 33%.

On to `O=C(C=CC12c3ccccc3C(c3ccccc31)C1C(=O)N(c3ccc(Cl)cc3)C(=O)C12)c1ccc(I)cc1` (stereo not shown) [Compound 25g, (E)-13-(4-Chlorophenyl)-9-(3-(4-iodophenyl)-3-oxoprop-1-en-1-yl)-9,10-dihydro-9,10-[3,4]epipyrroloanthracene-12,14-dione], for which, in data set [4], the cell viability amounted to 33%.

In data set [4], `O=C(C=CC12c3ccccc3C(c3ccccc31)C1C(=O)N(c3ccc(Cl)cc3)C(=O)C12)c1ccc(Cl)cc1` (stereo not shown) [Compound 25l, (E)-13-(4-Chlorophenyl)-9-(3-(4-chlorophenyl)-3-oxoprop-1-en-1-yl)-9,10-dihydro-9,10-[3,4]epipyrroloanthracene-12,14-dione] gave a cell viability of 24%.

On to `O=C(C=CC12c3ccccc3C(c3ccccc31)C1C(=O)N(c3ccc(Cl)cc3)C(=O)C12)c1ccco1` (stereo not shown) [Compound 25o, (E)-13-(4-Chlorophenyl)-9-(3-(furan-2-yl)-3-oxoprop-1-en-1-yl)-9,10-dihydro-9,10-[3,4]epipyrroloanthracene-12,14-dione], for which the figures for the cell viability in data set [4] and in data set [5] were 14% and 5%, respectively.

In the case of `O=C(c1ccccc1)c1ccc(N2C(=O)C3C4c5ccccc5C(C=CC(=O)c5ccco5)(c5ccccc54)C3C2=O)cc1` (stereo not shown) [Compound 26o, (E)-13-(4-Benzoylphenyl)-9-(3-(furan-2-yl)-3-oxoprop-1-en-1-yl)-9,10-dihydro-9,10-[3,4]epipyrroloanthracene-12,14-dione], the cell viability in data set [4] is on record as 9%; in data set [5], 15%.

With `Nc1nc(F)nc2c1ncn2[C@@H]1O[C@H](CO)[C@@H](O)[C@@H]1O` [Fludarabine, fludarabine, reference compound], the IC50 in data set [1] (Homo sapiens, CLL cell) was 30.1 µM; in data set [2] (Homo sapiens, 24 h), 32 µM; in data set [3] (Homo sapiens), 28.1 µM.

Regarding “(E)-13-(4-Chlorophenyl)-9-(3-(4-nitrophenyl)-3-oxoprop-1-en-1-yl)-9,10-dihydro-9,10-[3,4]epipyrroloanthracene-12,14-dione [Compound 25b]”, the cell viability in data set [4] is recorded as 34%; in data set [5], 35%.
